Measurements taken from patent US10507193B2, “Ultra low dose doxepin and methods of using the same to treat sleep disorders” (Pernix Sleep, Inc., priority 2006, dated 2019).

Legend:
Format in all cases: in vivo, human
[1] = tested on: patient suffering from transient or short term insomnia; experiment: Patient with transient or short term insomnia prescribed ultra low dose doxepin prior to bedtime
From the text: A patient suffers from transient or short term insomnia. The patient is otherwise healthy with normal affect with no depression, anxiety or substance overuse. The patient is prescribed doxepin in a daily dosage of 0.4 milligrams, prior to bedtime. […] A patient suffers from transient or short term insomnia. The patient is otherwise healthy with normal affect with no depression, anxiety or substance overuse. The patient is prescribed doxepin in a daily dosage of 0.08 milligrams, prior to bedtime. […] A patient suffers from transient or short term insomnia. The patient is otherwise healthy with normal affect with no depression, anxiety or substance overuse. The patient is prescribed doxepin in a daily dosage of 0.009 milligrams, prior to bedtime. […] A patient suffers from transient or short term insomnia. The patient is otherwise healthy with normal affect with no depression, anxiety or substance overuse. The patient is prescribed doxepin in a daily dosage of 0.0005 milligrams prior to bedtime. […] A patient suffers from transient or short term insomnia. The patient also suffers from depression. The patient is prescribed doxepin in a daily dosage of 0.3 milligrams, prior to bedtime. […] A patient suffers from transient or short term insomnia. The patient also suffers from depression. The patient is prescribed doxepin in a daily dosage of 0.1 milligrams, prior to bedtime. […] A patient suffers from transient or short term insomnia. The patient also suffers from depression. The patient is prescribed doxepin in a daily dosage of 0.006 milligrams, prior to bedtime. […] A patient suffers from transient or short term insomnia. The patient is otherwise healthy with normal affect with no depression, anxiety or substance overuse. The patient is prescribed doxepin in a daily dosage of 0.008 milligrams, prior to bedtime. […] A patient suffers from transient or short term insomnia. The patient also suffers from depression. The patient is prescribed doxepin in a daily dosage of 0.001 milligrams, prior to bedtime. […] A patient suffers from transient or short term insomnia. The patient also suffers from depression. The patient is prescribed doxepin in a daily dosage of 0.0003 milligrams prior to bedtime.

[2] = tested on: patient suffering from chronic insomnia; experiment: Patient with chronic insomnia prescribed ultra low dose doxepin prior to bedtime
From the text: A patient suffers from chronic insomnia. The patient is otherwise healthy with normal affect with no depression, anxiety or substance overuse. The patient is prescribed doxepin in a daily dosage of 0.4 milligrams prior to bedtime. […] A patient suffers from chronic insomnia. The patient is otherwise healthy with normal affect with no depression, anxiety or substance overuse. The patient is prescribed doxepin in a daily dosage of 0.2 milligrams prior to bedtime. […] A patient suffers from chronic insomnia. The patient is otherwise healthy with normal affect with no depression, anxiety or substance overuse. The patient is prescribed doxepin in a daily dosage of 0.02 milligrams prior to bedtime. […] A patient suffers from chronic insomnia. The patient is otherwise healthy with normal affect with no depression, anxiety or substance overuse. The patient is prescribed doxepin in a daily dosage of 0.007 milligrams prior to bedtime. […] A patient suffers from chronic insomnia. The patient is otherwise healthy with normal affect with no depression, anxiety or substance overuse. The patient is prescribed doxepin in a daily dosage of 0.009 milligrams prior to bedtime. […] A patient suffers from chronic insomnia. The patient is otherwise healthy with normal affect with no depression, anxiety or substance overuse. The patient is prescribed doxepin in a daily dosage of 0.0002 milligrams prior to bedtime. […] A patient suffers from chronic insomnia. The patient also suffers from depression. The patient is prescribed doxepin in a daily dosage of 0.5 milligram prior to bedtime. […] A patient suffers from chronic insomnia. The patient also suffers from depression. The patient is prescribed doxepin in a daily dosage of 0.03 milligrams prior to bedtime. […] A patient suffers from chronic insomnia. The patient also suffers from depression. The patient is prescribed doxepin in a daily dosage of 0.05 milligrams prior to bedtime. […] A patient suffers from chronic insomnia. The patient also suffers from depression. The patient is prescribed doxepin in a daily dosage of 0.004 milligrams prior to bedtime. […] A patient suffers from chronic insomnia. The patient also suffers from depression. The patient is prescribed doxepin in a daily dosage of 0.0001 milligrams prior to bedtime. […] A patient suffers from chronic insomnia. The patient also suffers from depression. The patient is prescribed doxepin in a daily dosage of 0.0009 milligrams prior to bedtime.

[3] = tested on: patient suffering from a sleep disorder; experiment: Patient with a sleep disorder prescribed ultra low dose doxepin, salt or prodrug prior to bedtime; settings: daily dosage 0.1 milligram prior to bedtime
From the text: A patient suffers from a sleep disorder. The patient is prescribed doxepin in a daily dosage of 0.1 milligram prior to bedtime. […] A patient suffers from a sleep disorder. The patient is prescribed a pharmaceutically acceptable salt of doxepin in a daily dosage of 0.3 milligrams prior to bedtime. […] A patient suffers from a sleep disorder. The patient is prescribed a pharmaceutically acceptable salt of doxepin in a daily dosage of 0.009 milligrams prior to bedtime. […] A patient suffers from a sleep disorder. The patient is prescribed a pharmaceutically acceptable salt of doxepin in a daily dosage of 0.006 milligrams prior to bedtime. […] A patient suffers from a sleep disorder. The patient is prescribed a pharmaceutically acceptable salt of doxepin in a daily dosage of 0.0007 milligrams prior to bedtime. […] A patient suffers from a sleep disorder. The patient is prescribed a prodrug of doxepin in a daily dosage of 0.1 milligrams prior to bedtime. […] A patient suffers from a sleep disorder. The patient is prescribed a prodrug of doxepin in a daily dosage of 0.0006 milligrams prior to bedtime. […] A patient suffers from a sleep disorder. The patient is prescribed a prodrug of doxepin in a daily dosage of 0.05 milligrams prior to bedtime. […] A patient suffers from a sleep disorder. The patient is prescribed a prodrug of doxepin in a daily dosage of 0.004 milligrams prior to bedtime. […]

[4] = otherwise healthy, no depression, daily dosage 0.009 milligrams prior to bedtime
[5] = otherwise healthy, no depression, daily dosage 0.4 milligrams prior to bedtime

Measured: relief of insomnia

CN(C)CCC=C1c2ccccc2COc2ccccc21 [doxepin, 11-(3-dimethylaminopropylidene)-6,11-dihydrodibenzo-[b,e]-oxepine]
relieves the insomnia: [1]; otherwise healthy, no depression, daily dosage 0.0005 milligrams prior to bedtime | [1]; otherwise healthy, no depression, daily dosage 0.008 milligrams prior to bedtime | [1]; [4] | [1]; otherwise healthy, no depression, daily dosage 0.08 milligrams prior to bedtime | [1]; [5] | [1]; patient also suffers from depression, daily dosage 0.0003 milligrams prior to bedtime | [1]; patient also suffers from depression, daily dosage 0.001 milligrams prior to bedtime | [1]; patient also suffers from depression, daily dosage 0.006 milligrams prior to bedtime | [1]; patient also suffers from depression, daily dosage 0.1 milligrams prior to bedtime | [1]; patient also suffers from depression, daily dosage 0.3 milligrams prior to bedtime | [2]; otherwise healthy, no depression, daily dosage 0.0002 milligrams prior to bedtime | [2]; otherwise healthy, no depression, daily dosage 0.007 milligrams prior to bedtime | [2]; [4] | [2]; otherwise healthy, no depression, daily dosage 0.02 milligrams prior to bedtime | [2]; otherwise healthy, no depression, daily dosage 0.2 milligrams prior to bedtime | [2]; [5] | [2]; patient also suffers from depression, daily dosage 0.0001 milligrams prior to bedtime | [2]; patient also suffers from depression, daily dosage 0.0009 milligrams prior to bedtime | [2]; patient also suffers from depression, daily dosage 0.004 milligrams prior to bedtime | [2]; patient also suffers from depression, daily dosage 0.03 milligrams prior to bedtime | [2]; patient also suffers from depression, daily dosage 0.05 milligrams prior to bedtime | [2]; patient also suffers from depression, daily dosage 0.5 milligram prior to bedtime | [3]
